We go through 24 molecules from patent publication US6339064B1, “Benzylglycosylamides as inhibitors of smooth muscle cell proliferation” (American Home Products Corporation, priority 1998, dated 2002).

SMILES strings stand for the structures.

Test system in the first data set: not given
Assay: not given
Conditions: not given
For orientation: melting point means the temperature, or range, at which the solid turns liquid. Turning to `CC(=O)OC[C@H]1O[C@@H](NC(=O)c2ccc(Cl)c(N)c2)[C@H](OC(C)=O)[C@@H](OC(C)=O)[C@@H]1O[C@H]1O[C@H](COC(C)=O)[C@@H](OC(C)=O)[C@H](OC(C)=O)[C@H]1OC(C)=O` [Example 2, 3-Amino-4-chloro-N-[2,3,6-tri-O-acetyl-4-O-(2,3,4,6-tetra-O-acetyl-α-D-glucopyranosyl)-β-D-glucopyranosyl}-benzamide], the melting point lay in the range of 115 to 119 °C.

`CC(=O)Nc1cc(C(=O)N[C@@H]2O[C@H](COC(C)=O)[C@@H](O[C@H]3O[C@H](COC(C)=O)[C@@H](OC(C)=O)[C@H](OC(C)=O)[C@H]3OC(C)=O)[C@H](OC(C)=O)[C@H]2OC(C)=O)ccc1Cl` [Example 3, 3-(Acetylamino)-4-chloro-N-[2,3,6-tri-O-acetyl-4-O-(2,3,4,6-tetra-O-acetyl-α-D-glucopyranosyl)-β-D-glucopyranosyl}-benzamide] gave a melting point of 122 to 124 °C.

The next data set relates to Porcine Smooth Muscle Cell. The data set is described as follows: Effects of compounds on cell proliferation using 3H thymidine incorporation (porcine smooth muscle cell antiproliferation). As to conditions: Sus scrofa, serum/growth factor stimulated cells, 24-36 h incubation. In kind it is cell-based. The protocol: Effects of Compounds on Cell Proliferation Using ^3H Thymidine Incorporation
Human and porcine smooth muscle cells were tested in early passage (generally passage 3-7) at sub-confluent conditions. Cultures were grown in 16 mm (24 well) multi-well culture dishes in medium 199 supplemented with 10% fetal bovine serum and 2% antibiotic/antimycotic. At sub-confluence, the cells were placed in a defined serum free medium (AIM-V; Gibco) for 24-48 h prior to initiating the experimental protocol.
Compounds were added to each well at 50 fold dilution (20 μL/well) and the plates were incubated for 24-36 h at 37° C. in 5% CO2. Compounds were initially dissolved in 50% ethanol and serially diluted into media. Compounds were routinely evaluated at concentrations from 1 to 100 μM. As a control, grade II porcine intestinal mucosal herapin (sodium salt) was routinely evaluated in all cell preparations at concentrations from 0.1 to 100 μg/mL.
At the completion of the test procedure, plates were placed on ice, washed three times with ice cold phosphate buffered saline (PBS) and incubated in ice cold 10% trichloroacetic acid (TCA) got 30 min to remove acid soluble proteins. Solution was transferred to scintillation vials containing 0.4 N HCl (500 μL/vial to neutralize NaOH) and each well was rinsed two times with water (500 μL) for a total volume of 2 mL/vial.
Data was obtained, in triplicate, for both control and experimental samples. Control (100%) data was obtained from maximally stimulated cells, as the result of growth factor or serum stimulation. Experimental data was obtained from cells maximally stimulated with growth factor or serum and treated with compound. Data are expressed as an IC50 in Table I below.
For orientation: Dividing cells build labelled thymidine or BrdU into new DNA.
For orientation: IC50 means the point on the concentration scale where inhibition reaches its midpoint. A lower IC50 goes with inhibition by little substance. For the molecule `CC(=O)OC[C@H]1O[C@@H](NC(=O)c2ccc(Cl)c(N)c2)[C@H](OC(C)=O)[C@@H](OC(C)=O)[C@@H]1O[C@H]1O[C@H](COC(C)=O)[C@@H](OC(C)=O)[C@H](OC(C)=O)[C@H]1OC(C)=O` [Example 2, 3-Amino-4-chloro-N-[2,3,6-tri-O-acetyl-4-O-(2,3,4,6-tetra-O-acetyl-α-D-glucopyranosyl)-β-D-glucopyranosyl}-benzamide], the midpoint of inhibition, the IC50, lay at 11.1 µM.

Take `CC(=O)Nc1cc(C(=O)N[C@@H]2O[C@H](COC(C)=O)[C@@H](O[C@H]3O[C@H](COC(C)=O)[C@@H](OC(C)=O)[C@H](OC(C)=O)[C@H]3OC(C)=O)[C@H](OC(C)=O)[C@H]2OC(C)=O)ccc1Cl` [Example 3, 3-(Acetylamino)-4-chloro-N-[2,3,6-tri-O-acetyl-4-O-(2,3,4,6-tetra-O-acetyl-α-D-glucopyranosyl)-β-D-glucopyranosyl}-benzamide]: the half-maximal inhibitory concentration (IC50) amounted to 54.3 µM.

Staying with this data set, now noted: at 50 μM, control (100%) = maximally stimulated cells.
For the molecule `CC(=O)OC1C(NC(=O)c2ccc(OCCCC#N)c([N+](=O)[O-])c2)OC(COC(=O)c2ccccc2)C(OC2OC3COC(c4ccccc4)OC3C(OC(C)=O)C2OC(C)=O)C1OC(C)=O` [Example 31, N-(2,2′,3,3′-tetra-O-Acetyl-6-O-benzoyl-4′,6′-O-benzylidene-β-D-maltosyl)-4-(4-nitrilo-butoxy)-3-nitro-benzamide], the “Porcine Smooth Muscle Cell Antiproliferation, % at 50 μM” value is reported as 15% at 50. Turning to `CC(=O)OC[C@H]1O[C@@H](NC(=O)c2ccc(OCCCC#N)c(N)c2)[C@H](OC(C)=O)[C@@H](OC(C)=O)[C@@H]1O[C@H]1O[C@H](COC(C)=O)[C@@H](OC(C)=O)[C@H](OC(C)=O)[C@H]1OC(C)=O` [Example 32], the “Porcine Smooth Muscle Cell Antiproliferation, % at 50 μM” value is 10% at 50. On the same count and under the same terms, with `CC(=O)Nc1cc(C(=O)N[C@@H]2O[C@H](COC(C)=O)[C@@H](O[C@H]3O[C@H](COC(C)=O)[C@@H](OC(C)=O)[C@H](OC(C)=O)[C@H]3OC(C)=O)[C@H](OC(C)=O)[C@H]2OC(C)=O)ccc1OCCCC#N` [Example 33] the figure was 0% at 50; with `O=C(N[C@@H]1O[C@H](CO)[C@@H](O[C@H]2O[C@@H]3COC(c4ccccc4)O[C@H]3[C@H](O)[C@H]2O)[C@H](O)[C@H]1O)c1cccc(C(F)(F)F)c1` (stereo partly drawn) [Example 39, N-(4′,6′-O-Benzylidene-β-D-maltosyl)-3-(trifluoromethyl)-Benzamide], 15% at 50. For `COc1ccc(CC(=O)NC2OC(CO)C(OC3OC4COC(c5ccccc5)OC4C(O)C3O)C(O)C2O)cc1OC` [Example 46, N-(4′,6′-Benzylidene-β-D-maltosyl)-2-(3,4-dimethoxy-phenyl)-acetamide], the “Porcine Smooth Muscle Cell Antiproliferation, % at 50 μM” value worked out at 0% at 50. Turning to `CC(=O)OC[C@H]1O[C@@H](NC(=O)Cc2ccc(O)c([N+](=O)[O-])c2)[C@H](OC(C)=O)[C@@H](OC(C)=O)[C@@H]1O[C@H]1O[C@H](COC(C)=O)[C@@H](OC(C)=O)[C@H](OC(C)=O)[C@H]1OC(C)=O` [Example 48, N-(Hepta-O-acetyl-β-D-maltosyl)-2-(4-hydroxy-3-nitro-phenyl)-acetamide], the “Porcine Smooth Muscle Cell Antiproliferation, % at 50 μM” value is given as 37% at 50.

Still in this data set, the particulars now being: serum/growth factor stimulated cells, 24-36 h incubation.
On to `N#CCCCOc1ccc(C(=O)NC2OC(COC(=O)c3ccccc3)C(OC3OC4COC(c5ccccc5)OC4C(O)C3O)C(O)C2O)cc1[N+](=O)[O-]` [Example 30, N-(6-O-Benzoyl-4′,6′-O-benzylidene-β-D-maltosyl)-4-(4-nitrilo-butoxy)-3-nitro-benzamide], for which the half-maximal inhibitory concentration (IC50) is 1.4 µM. On to `CC(=O)Nc1cc(C(=O)NC2OC(COC(=O)c3ccccc3)C(OC3OC4COC(c5ccccc5)OC4C(O)C3O)C(O)C2O)ccc1OCCCC#N` [Example 34, 3-Acetylamino-N-(6-O-benzoyl-4′,6′-O-benzylidene-β-D-maltosyl)-4-(4-nitrilo-butoxy)-benzamide], for which the IC50 was 0.98 µM. On to `CC(=O)OC[C@H]1O[C@@H](NC(=O)c2ccc(Cl)nc2)[C@H](OC(C)=O)[C@@H](OC(C)=O)[C@@H]1O[C@H]1O[C@H](COC(C)=O)[C@@H](OC(C)=O)[C@H](OC(C)=O)[C@H]1OC(C)=O` [Example 35, N-(Hepta-O-acetyl-β-D-maltosyl)-6-chloropyridine-3-carboxamide], for which the half-inhibitory concentration (IC50) is 66.6 µM. For the molecule `COc1ccc(C(=O)N[C@@H]2O[C@H](COC(C)=O)[C@@H](O[C@H]3O[C@H](COC(C)=O)[C@@H](OC(C)=O)[C@H](OC(C)=O)[C@H]3OC(C)=O)[C@H](OC(C)=O)[C@H]2OC(C)=O)c(OC)n1` [Example 36, N-(Hepta-O-acetyl-β-D-maltosyl)-2,6-dimethoxy-pyridine-3-carboxamide], the concentration for half-maximal inhibition (IC50) turned out to be 13.6 µM.

With `CC(=O)OC[C@H]1O[C@@H](NC(=O)c2cncc(Br)c2)[C@H](OC(C)=O)[C@@H](OC(C)=O)[C@@H]1O[C@H]1O[C@H](COC(C)=O)[C@@H](OC(C)=O)[C@H](OC(C)=O)[C@H]1OC(C)=O` [Example 37, N-(Hepta-O-acetyl-β-D-maltosyl)-5-bromopyridine-3-carboxamide], the IC50 was determined as 16.4 µM. On to `CC(=O)OC[C@H]1O[C@@H](NC(=O)c2cccc(C(F)(F)F)c2)[C@H](OC(C)=O)[C@@H](OC(C)=O)[C@@H]1O[C@H]1O[C@H](COC(C)=O)[C@@H](OC(C)=O)[C@H](OC(C)=O)[C@H]1OC(C)=O` [Example 38, N-(Hepta-O-acetyl-β-D-maltosyl)-3-(trifluoromethyl)-benzamide], for which the IC50 turned out to be 5.8 µM. The same measure, in the same setting: for `O=C(NC1OC(COC(=O)c2ccccc2)C(OC2OC3COC(c4ccccc4)OC3C(O)C2O)C(O)C1O)c1cccc(C(F)(F)F)c1` [Example 40, N-[{6-O-Benzoyl-4′,6′-O-benzylidene}-β-D-maltosyl]-3-(trifluoromethyl)-benzamide] the value was 7.15 µM.

`CC(=O)OC[C@H]1O[C@@H](NC(=O)c2ccc(C)nc2)[C@H](OC(C)=O)[C@@H](OC(C)=O)[C@@H]1O[C@H]1O[C@H](COC(C)=O)[C@@H](OC(C)=O)[C@H](OC(C)=O)[C@H]1OC(C)=O` [Example 41, N-(Hepta-O-acetyl-β-D-maltosyl)-6-methylpyridine-3-carboxamide] registered a concentration for half-maximal inhibition (IC50) of 65.8 µM. In turn, `CCCCOc1c(Cl)cc(C(=O)N[C@@H]2O[C@H](CO)[C@@H](O[C@H]3O[C@H](CO)[C@@H](O)[C@H](O)[C@H]3O)[C@H](O)[C@H]2O)cc1Cl` [Example 42, 4-Butoxy-3,5-dichloro-N-β-D-maltosyl-benzamide] yielded a 50% inhibitory concentration (IC50) of 28.9 µM. For `CCCCOc1c(Cl)cc(C(=O)NC2OC(CO)C(OC3OC4COC(c5ccccc5)OC4C(O)C3O)C(O)C2O)cc1Cl` [Example 43, N-(4′,6′-O-Benzylidene-β-D-maltosyl)-4-butoxy-3,5-dichloro-benzamide], the IC50 came out at 44.5 µM. Take `COc1ccc(C(=O)N[C@@H]2O[C@H](COC(C)=O)[C@@H](O[C@H]3O[C@H](COC(C)=O)[C@@H](OC(C)=O)[C@H](OC(C)=O)[C@H]3OC(C)=O)[C@H](OC(C)=O)[C@H]2OC(C)=O)cc1Cl` [Example 44, N-(Hepta-O-acetyl-β-D-maltosyl)-3-chloro-4-methoxy-benzamide]: the 50% inhibitory concentration (IC50) amounted to 5.4 µM. In turn, `COc1ccc(CC(=O)N[C@@H]2O[C@H](COC(C)=O)[C@@H](O[C@H]3O[C@H](COC(C)=O)[C@@H](OC(C)=O)[C@H](OC(C)=O)[C@H]3OC(C)=O)[C@H](OC(C)=O)[C@H]2OC(C)=O)cc1OC` [Example 45, N-(2,2′,3,3′,4′,6,6′-hepta-O-acetyl-β-D-maltosyl)-1-(3,4-dimethoxy)-phenyl-acetamide] came in with a 50% inhibitory concentration (IC50) of 16.6 µM. Same read-out and setting: with `COc1ccc(CC(=O)NC2OC(COC(=O)c3ccccc3)C(OC3OC4COC(c5ccccc5)OC4C(O)C3O)C(O)C2O)cc1OC` [Example 47, N-(6-O-Benzoyl-4′,6′-O-benzylidene-β-D-maltosyl)-2-(3,4-dimethoxy-phenyl)-acetamide] the figure was 8 µM; with `CCCCOc1c(Cl)cc(C(=O)N[C@@H]2O[C@H](COC(C)=O)[C@@H](O[C@H]3O[C@H](COC(C)=O)[C@@H](OC(C)=O)[C@H](OC(C)=O)[C@H]3OC(C)=O)[C@H](OC(C)=O)[C@H]2OC(C)=O)cc1Cl` [Example 49, N-(2,2′,3,3′,4′,6,6′-Hepta-O-acetyl-β-D-maltosyl)-4-butoxy-3,5-dichloro-benzylamide], 12.6 µM; with `CC(=O)OC[C@H]1O[C@@H](NC(=O)Cc2ccc(Cl)c([N+](=O)[O-])c2)[C@H](OC(C)=O)[C@@H](OC(C)=O)[C@@H]1O[C@H]1O[C@H](COC(C)=O)[C@@H](OC(C)=O)[C@H](OC(C)=O)[C@H]1OC(C)=O` [Example 50, N-(2,2′,3,3′,4′,6,6′-hepta-O-acetyl-β-D-maltosyl)-2-(4-chloro-3-nitro-phenyl)-acetamide], 4.23 µM. On the same count and under the same terms, with `CC(=O)Nc1cc(CC(=O)N[C@@H]2O[C@H](COC(=O)c3ccccc3)[C@@H](O[C@H]3O[C@@H]4COC(c5ccccc5)O[C@H]4[C@H](O)[C@H]3O)[C@H](O)[C@H]2O)ccc1Cl` (some centres unmarked) [Example 51] the figure was 0.916 µM.
